From ChEMBL document CHEMBL1201862, “PubChem BioAssay data set” (2004)
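Interpolation was linear, between the two tested concentrations surrounding the appropriate level; five concentrations were tested over 48 hours in 96-well plates. GI50 = concentration required for 50% inhibition of growth.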 Calls of active or inactive are those of the source. Cut-off read from the data, not from the text of the source: active = GI50 up to about 1.1 µM and inactive = higher.

How the values were obtained:
Experiment in all cases: DTP human tumour cell line panel, 48 h
MCF7 = test system: MCF7
OVCAR-8 = test system: OVCAR-8
HOP-62 = test system: HOP-62
OVCAR-5 = test system: OVCAR-5
A549 = test system: A549
SR = test system: SR
T47D = test system: T47D
MOLT-4 = test system: MOLT-4
HT-29 = test system: HT-29
SK-MEL-28 = test system: SK-MEL-28
OVCAR-3 = test system: OVCAR-3
NCI-H522 = test system: NCI-H522
RXF 393 = test system: RXF 393
SK-MEL-5 = test system: SK-MEL-5
CAKI-1 = test system: CAKI-1
786-0 = test system: 786-0
SF-295 = test system: SF-295
HCT-15 = test system: HCT-15
EKVX = test system: EKVX
MDA-N = test system: MDA-N
HCT-116 = test system: HCT-116
SK-OV-3 = test system: SK-OV-3
OVCAR-4 = test system: OVCAR-4
U-251 = test system: U-251
K562 = test system: K562
BT-549 = test system: BT-549
IGROV-1 = test system: IGROV-1
MDA-MB-435 = test system: MDA-MB-435
COLO 205 = test system: COLO 205
UACC-257 = test system: UACC-257
UO-31 = test system: UO-31
NCI/ADR-RES = test system: NCI/ADR-RES
PC-3 = test system: PC-3
CCRF-CEM = test system: CCRF-CEM
DU-145 = test system: DU-145
M14 = test system: M14
HL-60 = test system: HL-60
SF-268 = test system: SF-268
NCI-H460 = test system: NCI-H460
SNB-75 = test system: SNB-75
NCI-H23 = test system: NCI-H23
NCI-H226 = test system: NCI-H226
Malme-3M = test system: Malme-3M
Hs-578T = test system: Hs-578T
LOX IMVI = test system: LOX IMVI
MDA-MB-231 = test system: MDA-MB-231
ACHN = test system: ACHN
UACC-62 = test system: UACC-62
KM12 = test system: KM12
SNB-19 = test system: SNB-19
TK-10 = test system: TK-10
SN12C = test system: SN12C

Measured: GI50

O=c1[nH]c(=O)n(C2CC(O)C(CO)O2)cc1/N=N/NCc1ccccc1 (configuration not stated)
> 100 µM: HCT-15
inactive: MCF7 > 100 µM | OVCAR-8 > 100 µM | HOP-62 > 100 µM | OVCAR-5 > 100 µM | A549 > 100 µM | SR > 100 µM | T47D > 100 µM | MOLT-4 > 100 µM | HT-29 > 100 µM | SK-MEL-28 > 100 µM | OVCAR-3 > 100 µM | NCI-H522 > 100 µM | RXF 393 > 100 µM | SK-MEL-5 > 100 µM | CAKI-1 > 100 µM | 786-0 > 100 µM | SF-295 59 µM | EKVX > 100 µM | MDA-N > 100 µM | HCT-116 > 100 µM | SK-OV-3 > 100 µM | OVCAR-4 > 100 µM | U-251 > 100 µM | K562 > 100 µM | BT-549 > 100 µM | IGROV-1 > 100 µM | MDA-MB-435 > 100 µM | COLO 205 > 10 µM | UACC-257 > 100 µM | UO-31 > 100 µM | NCI/ADR-RES > 100 µM | PC-3 > 100 µM | CCRF-CEM > 100 µM | DU-145 > 100 µM | M14 > 100 µM | HL-60 > 100 µM | SF-268 > 100 µM | NCI-H460 > 100 µM | SNB-75 > 100 µM | NCI-H23 > 100 µM | NCI-H226 > 100 µM | Malme-3M > 100 µM | Hs-578T > 100 µM | LOX IMVI > 100 µM | MDA-MB-231 > 100 µM | ACHN > 100 µM | UACC-62 > 100 µM | KM12 > 100 µM | SNB-19 > 100 µM | TK-10 > 100 µM | SN12C > 100 µM
